Assay results reported in PubChem BioAssay AID248 (DTP/NCI, 2004).
Where “and” joins values, the source holds several entries; their conditions need not be identical. Identical values can stand only once. Inconclusive results and toxic doses are left out. Rule as the data show it: active = T/C of 150% or more; inactive = T/C below 125%.

Tested on: L1210 leukemia ip in BDF1 mice, survival T/C
Test: NCI In Vivo Anticancer Drug Screen. Data for tumor model L1210 Leukemia (intraperitoneal) in B6D2F1 (BDF1) mice
Details: endpoint: mean survival time, higher = longer survival
Procedure, shortened: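 Value reflects the ratio of survival in compound-treated mice to survival in vehicle-treated controls, with both groups carrying the same transplanted tumor.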

[1] = dose: 12.5 mg/kg/injection, schedule: Q01DX009 (ip), vehicle: saline with Tween-80
[2] = dose: 100.0 mg/kg/injection, schedule: Q01DX001 (ip), vehicle: other
[3] = dose: 200.0 mg/kg/injection, schedule: Q01DX001 (ip), vehicle: other
[4] = dose: 400.0 mg/kg/injection, schedule: Q01DX001 (ip), vehicle: other
[5] = dose: 100.0 mg/kg/injection, schedule: Q01DX009 (ip), vehicle: saline with Tween-80
[6] = dose: 100.0 mg/kg/injection, schedule: Q04DX003 (ip), vehicle: Klucel (hydroxypropylcellulose) (HPC)
[7] = dose: 100.0 mg/kg/injection, schedule: Q04DX003 (ip), vehicle: saline with Tween-80
[8] = dose: 200.0 mg/kg/injection, schedule: Q01DX009 (ip), vehicle: saline with Tween-80
[9] = dose: 200.0 mg/kg/injection, schedule: Q04DX003 (ip), vehicle: Klucel (hydroxypropylcellulose) (HPC)
[10] = dose: 200.0 mg/kg/injection, schedule: Q04DX003 (ip), vehicle: saline with Tween-80
[11] = dose: 400.0 mg/kg/injection, schedule: Q01DX009 (ip), vehicle: saline with Tween-80
[12] = dose: 400.0 mg/kg/injection, schedule: Q04DX003 (ip), vehicle: Klucel (hydroxypropylcellulose) (HPC)
[13] = dose: 100.0 mg/kg/injection, schedule: Q04DX003 (ip), vehicle: saline
[14] = dose: 100.0 mg/kg/injection, schedule: Q01DX009 (ip), vehicle: saline
[15] = dose: 200.0 mg/kg/injection, schedule: Q01DX009 (ip), vehicle: saline
[16] = dose: 400.0 mg/kg/injection, schedule: Q01DX009 (ip), vehicle: saline
[17] = dose: 100.0 mg/kg/injection, schedule: Q01DX001 (ip), vehicle: saline
[18] = dose: 100.0 mg/kg/injection, schedule: Q04DX002 (ip), vehicle: saline with Tween-80
[19] = dose: 200.0 mg/kg/injection, schedule: Q04DX002 (ip), vehicle: saline with Tween-80
[20] = dose: 400.0 mg/kg/injection, schedule: Q04DX002 (ip), vehicle: saline with Tween-80
[21] = dose: 200.0 mg/kg/injection, schedule: Q01DX001 (ip), vehicle: saline
[22] = dose: 400.0 mg/kg/injection, schedule: Q01DX001 (ip), vehicle: saline

Measured: T/C

CC1(C)N=C(N)N=C(N)N1c1ccc(OCCCNC(=O)Nc2cccc(S(=O)(=O)F)c2)c(Cl)c1
inactive: dose: 50.0 mg/kg/injection, schedule: Q01DX009 (ip), vehicle: saline 114 % of control

OC(CN1CCCCC1)c1ccc(/C=C/c2ccc(Cl)cc2)cc1 (stereo not given)
inactive: dose: 6.25 mg/kg/injection, schedule: Q01DX009 (ip), vehicle: saline with Tween-80 101 % of control | dose: 6.25 mg/kg/injection, schedule: Q04DX003 (ip), vehicle: saline with Tween-80 93 % of control | [1] 93 % of control | dose: 12.5 mg/kg/injection, schedule: Q04DX003 (ip), vehicle: saline with Tween-80 88 % of control | dose: 25.0 mg/kg/injection, schedule: Q04DX003 (ip), vehicle: saline with Tween-80 98 % of control and 87 % of control | dose: 100.0 mg/kg/injection, schedule: Q01DX001 (ip), vehicle: saline with Tween-80 88 % of control

O=Cc1cc(O)c(O)c(O)c1
inactive: dose: 50.0 mg/kg/injection, schedule: Q01DX001 (ip), vehicle: other 103 % of control | [2] 101 % of control | [3] 101 % of control | [4] 104 % of control

Cc1ccc(OCCOC(=O)COc2ccc(Cl)cc2Cl)cc1C
inactive: dose: 100.0 mg/kg/injection, schedule: Q04DX002 (ip), vehicle: Klucel (hydroxypropylcellulose) (HPC) 102 % of control | dose: 200.0 mg/kg/injection, schedule: Q04DX002 (ip), vehicle: Klucel (hydroxypropylcellulose) (HPC) 97 % of control | dose: 400.0 mg/kg/injection, schedule: Q04DX002 (ip), vehicle: Klucel (hydroxypropylcellulose) (HPC) 102 % of control

Brc1cnc(OCc2ccccc2)nc1OCc1ccccc1
inactive: dose: 100.0 mg/kg/injection, schedule: Q01DX009 (ip), vehicle: Klucel (hydroxypropylcellulose) (HPC) 91 % of control | [5] 103 % of control | [6] 96 % of control | [7] 103 % of control | dose: 200.0 mg/kg/injection, schedule: Q01DX009 (ip), vehicle: Klucel (hydroxypropylcellulose) (HPC) 102 % of control | [8] 102 % of control | [9] 100 % of control | [10] 97 % of control | dose: 400.0 mg/kg/injection, schedule: Q01DX009 (ip), vehicle: Klucel (hydroxypropylcellulose) (HPC) 104 % of control | [11] 101 % of control | [12] 93 % of control | dose: 400.0 mg/kg/injection, schedule: Q04DX003 (ip), vehicle: saline with Tween-80 92 % of control

CC(C)=CCCC(C)CCN(C)C (stereo not given)
inactive: dose: 25.0 mg/kg/injection, schedule: Q04DX003 (ip), vehicle: saline 96 % of control | dose: 50.0 mg/kg/injection, schedule: Q04DX003 (ip), vehicle: saline 97 % of control | [13] 96 % of control

CC#CCOCC1CO1 (stereo not given)
inactive: [14] 100 % of control | dose: 100.0 mg/kg/injection, schedule: Q04DX003 (ip), vehicle: saline sonified 117 % of control | [15] 99 % of control | dose: 200.0 mg/kg/injection, schedule: Q04DX003 (ip), vehicle: saline sonified 119 % of control | [16] 96 % of control | dose: 400.0 mg/kg/injection, schedule: Q04DX003 (ip), vehicle: saline sonified 106 % of control

CC(=O)OC12CCC(O1)C1C(=O)OC(=O)C12 (stereo not given)
inactive: [6] 101 % of control | [9] 97 % of control | [12] 97 % of control

CCC1C2Cc3ccc(O)cc3C1(CC)CCN2C (stereo not given)
inactive: dose: 50.0 mg/kg/injection, schedule: Q01DX001 (ip), vehicle: saline 101 % of control | [17] 101 % of control

Cc1ccc([Si](O)(c2ccc(C)cc2)c2ccc(C)cc2)cc1
inactive: [2] 97 % of control | [3] 97 % of control | [4] 100 % of control

C(Sc1ccccc1)=C(Sc1ccccc1)Sc1ccccc1
inactive: dose: 6.25 mg/kg/injection, schedule: Q01DX009 (ip), vehicle: other 94 % of control | dose: 125.0 mg/kg/injection, schedule: Q01DX009 (ip), vehicle: other 105 % of control | dose: 250.0 mg/kg/injection, schedule: Q01DX009 (ip), vehicle: other 98 % of control

CC(C)CCCC(C)C1CCC2C3CC=C4CC(OC(=O)Nc5ccc(S(=O)(=O)N(C)C)cc5)CCC4(C)C3CCC12C (stereo not given)
inactive: dose: 100.0 mg/kg/injection, schedule: Q01DX001 (sc), vehicle: steriod suspending solution 103 % of control | dose: 200.0 mg/kg/injection, schedule: Q01DX001 (sc), vehicle: steriod suspending solution 103 % of control | dose: 400.0 mg/kg/injection, schedule: Q01DX001 (sc), vehicle: steriod suspending solution 103 % of control

CN(C)N=Nc1ccc(S(C)(=O)=O)cc1
inactive: dose: 25.0 mg/kg/injection, schedule: Q04DX002 (ip), vehicle: saline with Tween-80 105 % of control | dose: 50.0 mg/kg/injection, schedule: Q04DX002 (ip), vehicle: saline with Tween-80 102 % of control | [18] 102 % of control and 106 % of control | [19] 116 % of control | [20] 97 % of control

COCCN(CCOC)C(=O)Nc1cccc(Cl)c1
inactive: [18] 90 % of control | [19] 100 % of control | [20] 106 % of control

CCCCCCCCCCCCNC(=O)OCCN(CCOC(=O)NCCCCCCCCCCCC)C(=O)COc1ccc(Cl)cc1
inactive: dose: 100.0 mg/kg/injection, schedule: Q01DX009 (ip), vehicle: other 92 % of control | dose: 200.0 mg/kg/injection, schedule: Q01DX009 (ip), vehicle: other 92 % of control | dose: 400.0 mg/kg/injection, schedule: Q01DX009 (ip), vehicle: other 96 % of control

O=S(=O)(O)CBr
inactive: [17] 107 % of control | [14] 91 % of control | [13] 100 % of control | [21] 106 % of control | [15] 96 % of control | dose: 200.0 mg/kg/injection, schedule: Q04DX003 (ip), vehicle: saline 100 % of control | [22] 109 % of control | [16] 98 % of control | dose: 400.0 mg/kg/injection, schedule: Q04DX003 (ip), vehicle: saline 106 % of control

O=C(O)C1CCC=CC1c1ccccc1 (stereo not given)
inactive: dose: 100.0 mg/kg/injection, schedule: Q01DX005 (ip), vehicle: saline with Tween-80 101 % of control | [5] 96 % of control | dose: 200.0 mg/kg/injection, schedule: Q01DX005 (ip), vehicle: saline with Tween-80 101 % of control | [8] 110 % of control | dose: 400.0 mg/kg/injection, schedule: Q01DX005 (ip), vehicle: saline with Tween-80 116 % of control | [11] 110 % of control

O=C(Nc1cc[n+](Cc2ccc(S(=O)(=O)F)cc2)cc1)c1ccccc1
inactive: [7] 96 % of control | [10] 98 % of control

CCOC(=O)C(O)(C#CC(C)C)C1CCCC1 (stereo not given)
inactive: [17] 107 % of control | [21] 105 % of control | [22] 102 % of control

Cc1cc(Cl)ccc1NC(=O)OCCOc1ccc([N+](=O)[O-])cc1
inactive: [1] 107 % of control | dose: 25.0 mg/kg/injection, schedule: Q01DX009 (ip), vehicle: saline with Tween-80 91 % of control | dose: 50.0 mg/kg/injection, schedule: Q01DX009 (ip), vehicle: saline with Tween-80 110 % of control

CCCCOC(=O)C(C)OC(=O)Nc1cccc(Cl)c1 (stereo not given)
inactive: [5] 93 % of control | [8] 95 % of control | [11] 90 % of control

COC(=O)CCCN1C(=O)c2ccccc2C1=O
inactive: dose: 100.0 mg/kg/injection, schedule: Q04DX002 (ip), vehicle: carboxymethylcellulose (CMC) 102 % of control and 87 % of control | dose: 100.0 mg/kg/injection, schedule: Q04DX003 (ip), vehicle: carboxymethylcellulose (CMC) 94 % of control | dose: 200.0 mg/kg/injection, schedule: Q04DX002 (ip), vehicle: carboxymethylcellulose (CMC) 97 % of control and 91 % of control | dose: 200.0 mg/kg/injection, schedule: Q04DX003 (ip), vehicle: carboxymethylcellulose (CMC) 92 % of control | dose: 400.0 mg/kg/injection, schedule: Q04DX002 (ip), vehicle: carboxymethylcellulose (CMC) 93 % of control and 90 % of control | dose: 400.0 mg/kg/injection, schedule: Q04DX003 (ip), vehicle: carboxymethylcellulose (CMC) 99 % of control

Clc1ccccc1-c1nc2ccccc2cc1Br
inactive: [17] 97 % of control | [21] 96 % of control | [22] 92 % of control
